Where two headings read alike, the source gives them in different places.
Experiments:
Assay in all cases: Kinase activity test (ReactionBiology), % enzyme activity relative to DMSO
Type in all cases: biochemical
DAPK1 = biological target: T1, DAPK1 (Homo sapiens, UniProt P53355); conditions: DAPK1
T1 construct: purchased ReactionBiology

NEK2 = biological target: T2, NEK2 (Homo sapiens, UniProt P51955); conditions: NEK2; for % Enzyme Activity (relative to DMSO controls), Average: average of Data 1 and Data 2; for % Enzyme Activity (relative to DMSO controls), Data 1: replicate 1; for % Enzyme Activity (relative to DMSO controls), Data 2: replicate 2;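 on all read-outs here: FDA-approved drugs chosen by structure-based repositioning, each screened at 10 or 1 µM for kinase activity, expressed as percent of DMSO controls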
T2 construct: purchased ReactionBiology
T2 sequence (P51955 1-445): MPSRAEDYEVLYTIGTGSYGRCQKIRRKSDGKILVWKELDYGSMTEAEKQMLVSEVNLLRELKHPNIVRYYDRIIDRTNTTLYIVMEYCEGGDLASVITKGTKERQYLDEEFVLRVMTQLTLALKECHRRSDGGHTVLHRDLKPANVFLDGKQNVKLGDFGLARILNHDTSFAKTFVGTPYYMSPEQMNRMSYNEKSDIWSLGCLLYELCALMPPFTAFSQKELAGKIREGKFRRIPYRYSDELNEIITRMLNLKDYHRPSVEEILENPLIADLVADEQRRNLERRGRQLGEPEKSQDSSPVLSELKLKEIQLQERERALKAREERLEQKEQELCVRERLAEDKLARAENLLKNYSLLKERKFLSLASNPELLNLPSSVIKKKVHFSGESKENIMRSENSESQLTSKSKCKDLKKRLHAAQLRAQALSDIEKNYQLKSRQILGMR

CK1d = biological target: T3, CK1d (Homo sapiens, UniProt P48730); conditions: CK1d
T3 construct: purchased ReactionBiology

VEGFR2 = VEGFR2 (Homo sapiens, UniProt P35968); parameters: purchased ReactionBiology; conditions: VEGFR2; for % Enzyme Activity (relative to DMSO controls), Data 1: replicate Data 1; for % Enzyme Activity (relative to DMSO controls), Data 2: replicate Data 2;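 on all read-outs here: VEGFR2 was one member of a ten-kinase screening panel testing marketed FDA-approved drugs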
[1] = 1 uM, Average, read-out: % Enzyme Activity (relative to DMSO controls), Average
[2] = 1 uM, replicate Data 1, read-out: % Enzyme Activity (relative to DMSO controls), Data 1
[3] = 1 uM, replicate Data 2, read-out: % Enzyme Activity (relative to DMSO controls), Data 2
[4] = 10 uM, Average, read-out: % Enzyme Activity (relative to DMSO controls), Average
[5] = 10 uM, replicate Data 1, read-out: % Enzyme Activity (relative to DMSO controls), Data 1
[6] = 10 uM, replicate Data 2, read-out: % Enzyme Activity (relative to DMSO controls), Data 2
[7] = compound 1μM, relative to DMSO controls, read-out: % Enzyme activity at 1μM
[8] = compound 10μM, relative to DMSO controls, read-out: % Enzyme activity at 10μM

T1 sequence (P53355 whole entry): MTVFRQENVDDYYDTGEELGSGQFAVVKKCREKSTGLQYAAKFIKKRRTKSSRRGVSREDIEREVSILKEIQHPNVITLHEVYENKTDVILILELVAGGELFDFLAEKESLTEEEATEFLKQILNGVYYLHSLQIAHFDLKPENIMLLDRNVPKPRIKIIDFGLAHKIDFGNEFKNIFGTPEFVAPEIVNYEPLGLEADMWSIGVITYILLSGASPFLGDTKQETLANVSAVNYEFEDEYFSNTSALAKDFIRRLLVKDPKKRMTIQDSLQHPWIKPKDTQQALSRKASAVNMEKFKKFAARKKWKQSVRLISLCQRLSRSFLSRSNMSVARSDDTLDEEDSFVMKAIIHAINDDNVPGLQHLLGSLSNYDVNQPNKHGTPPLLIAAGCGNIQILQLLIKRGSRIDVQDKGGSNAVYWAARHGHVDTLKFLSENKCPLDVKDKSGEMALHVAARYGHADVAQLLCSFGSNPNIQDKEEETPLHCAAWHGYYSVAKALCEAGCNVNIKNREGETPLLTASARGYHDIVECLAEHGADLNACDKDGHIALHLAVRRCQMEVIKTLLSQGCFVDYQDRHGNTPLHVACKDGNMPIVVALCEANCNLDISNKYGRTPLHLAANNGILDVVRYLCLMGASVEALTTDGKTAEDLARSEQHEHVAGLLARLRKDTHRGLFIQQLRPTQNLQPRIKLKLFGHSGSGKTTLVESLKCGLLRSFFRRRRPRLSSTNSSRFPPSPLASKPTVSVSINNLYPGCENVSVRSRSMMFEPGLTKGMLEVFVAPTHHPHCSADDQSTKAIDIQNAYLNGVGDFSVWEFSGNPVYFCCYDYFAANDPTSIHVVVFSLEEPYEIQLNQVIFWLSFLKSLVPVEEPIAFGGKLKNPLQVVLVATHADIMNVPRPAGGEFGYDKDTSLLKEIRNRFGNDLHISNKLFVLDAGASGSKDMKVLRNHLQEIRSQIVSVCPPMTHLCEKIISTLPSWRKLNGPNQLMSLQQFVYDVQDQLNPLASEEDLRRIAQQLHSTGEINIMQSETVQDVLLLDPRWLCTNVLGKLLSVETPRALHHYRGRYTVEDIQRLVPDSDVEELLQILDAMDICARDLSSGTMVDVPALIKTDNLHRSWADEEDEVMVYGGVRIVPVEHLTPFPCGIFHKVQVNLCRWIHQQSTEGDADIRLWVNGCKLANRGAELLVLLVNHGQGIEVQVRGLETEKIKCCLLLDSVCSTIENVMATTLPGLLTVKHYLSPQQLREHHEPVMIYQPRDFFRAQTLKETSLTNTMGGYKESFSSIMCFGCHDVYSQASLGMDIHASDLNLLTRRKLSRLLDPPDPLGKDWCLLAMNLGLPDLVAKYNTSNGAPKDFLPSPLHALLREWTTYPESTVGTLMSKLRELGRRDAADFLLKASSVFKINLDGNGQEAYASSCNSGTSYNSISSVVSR
T3 sequence (P48730 whole entry): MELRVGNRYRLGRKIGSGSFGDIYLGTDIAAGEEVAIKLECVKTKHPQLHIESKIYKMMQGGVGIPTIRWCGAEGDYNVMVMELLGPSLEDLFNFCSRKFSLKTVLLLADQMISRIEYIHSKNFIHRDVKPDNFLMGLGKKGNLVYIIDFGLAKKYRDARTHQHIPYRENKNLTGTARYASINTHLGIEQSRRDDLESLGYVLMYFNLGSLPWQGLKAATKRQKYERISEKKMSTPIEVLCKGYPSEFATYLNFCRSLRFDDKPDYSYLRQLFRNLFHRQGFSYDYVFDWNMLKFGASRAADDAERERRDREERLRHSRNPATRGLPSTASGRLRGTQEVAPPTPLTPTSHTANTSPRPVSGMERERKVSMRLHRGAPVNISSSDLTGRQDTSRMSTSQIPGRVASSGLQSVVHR
VEGFR2, sequence (P35968 20-1356): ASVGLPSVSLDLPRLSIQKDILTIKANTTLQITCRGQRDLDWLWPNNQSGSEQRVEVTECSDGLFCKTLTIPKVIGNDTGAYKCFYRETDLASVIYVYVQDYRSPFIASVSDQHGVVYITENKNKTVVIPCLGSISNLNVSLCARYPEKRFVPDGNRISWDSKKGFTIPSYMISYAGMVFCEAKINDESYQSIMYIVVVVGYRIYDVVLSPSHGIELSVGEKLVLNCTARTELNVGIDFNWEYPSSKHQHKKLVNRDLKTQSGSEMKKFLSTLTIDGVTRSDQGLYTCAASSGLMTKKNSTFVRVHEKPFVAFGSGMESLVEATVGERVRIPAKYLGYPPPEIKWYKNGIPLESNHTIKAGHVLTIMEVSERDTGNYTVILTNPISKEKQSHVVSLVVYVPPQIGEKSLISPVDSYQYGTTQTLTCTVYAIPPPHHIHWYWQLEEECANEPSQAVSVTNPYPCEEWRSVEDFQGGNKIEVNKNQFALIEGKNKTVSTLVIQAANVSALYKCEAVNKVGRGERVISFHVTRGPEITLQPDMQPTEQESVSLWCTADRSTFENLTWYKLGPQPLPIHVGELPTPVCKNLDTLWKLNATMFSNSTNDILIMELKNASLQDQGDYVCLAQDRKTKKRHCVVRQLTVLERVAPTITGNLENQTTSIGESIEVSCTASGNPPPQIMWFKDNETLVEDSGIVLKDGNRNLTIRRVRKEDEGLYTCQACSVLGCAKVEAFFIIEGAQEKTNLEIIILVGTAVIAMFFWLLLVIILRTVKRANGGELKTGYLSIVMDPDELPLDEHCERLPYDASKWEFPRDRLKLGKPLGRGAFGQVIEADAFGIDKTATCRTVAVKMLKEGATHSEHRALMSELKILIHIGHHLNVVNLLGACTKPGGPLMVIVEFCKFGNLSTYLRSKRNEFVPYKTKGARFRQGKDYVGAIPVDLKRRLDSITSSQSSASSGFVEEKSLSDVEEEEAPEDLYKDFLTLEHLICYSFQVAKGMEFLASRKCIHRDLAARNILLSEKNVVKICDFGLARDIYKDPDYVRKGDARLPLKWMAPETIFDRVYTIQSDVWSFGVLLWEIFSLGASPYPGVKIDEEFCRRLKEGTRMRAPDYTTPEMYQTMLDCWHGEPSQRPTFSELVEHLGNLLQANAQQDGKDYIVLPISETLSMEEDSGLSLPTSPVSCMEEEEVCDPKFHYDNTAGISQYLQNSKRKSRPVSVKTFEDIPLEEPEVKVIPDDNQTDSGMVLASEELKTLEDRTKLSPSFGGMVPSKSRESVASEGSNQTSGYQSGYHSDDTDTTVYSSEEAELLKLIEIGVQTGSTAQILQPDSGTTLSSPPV

Molecule	% Enzyme Activity (relative to DMSO controls), Average (DAPK1; 1 uM, Average)	% Enzyme Activity (relative to DMSO controls), Data 1 (DAPK1; 1 uM, replicate Data 1)	% Enzyme Activity (relative to DMSO controls), Data 2 (DAPK1; 1 uM, replicate Data 2)	% Enzyme Activity (relative to DMSO controls), Average (DAPK1; 10 uM, Average)	% Enzyme Activity (relative to DMSO controls), Data 1 (DAPK1; 10 uM, replicate Data 1)	% Enzyme Activity (relative to DMSO controls), Data 2 (DAPK1; 10 uM, replicate Data 2)	also measured
CC(=O)OCC1=C(C(=O)O)N2C(=O)[C@@H](NC(=O)Cc3cccs3)[C@H]2SC1 [Cephalothin]							% Enzyme Activity (relative to DMSO controls), Average (NEK2; compound at 1 uM): 98.03%; % Enzyme Activity (relative to DMSO controls), Data 1 (NEK2; compound at 1 uM): 94.64%; % Enzyme Activity (relative to DMSO controls), Data 2 (NEK2; compound at 1 uM): 101.41%; % Enzyme Activity (relative to DMSO controls), Average (NEK2; compound at 10 uM): 78.52%; % Enzyme Activity (relative to DMSO controls), Data 1 (NEK2; compound at 10 uM): 86.91%; % Enzyme Activity (relative to DMSO controls), Data 2 (NEK2; compound at 10 uM): 70.13%
CC(C)CN(C[C@@H](O)[C@H](Cc1ccccc1)NC(=O)O[C@H]1CO[C@H]2OCC[C@H]21)S(=O)(=O)c1ccc(N)cc1 [Darunavir]		101.48%			82.12%		% Enzyme Activity (relative to DMSO controls), Data 1 (CK1d; 1 uM, replicate Data 1): 116.81%; % Enzyme Activity (relative to DMSO controls), Data 1 (VEGFR2; 1 uM): 105.45%; % Enzyme Activity (relative to DMSO controls), Data 1 (VEGFR2; 10 uM): 98.21%
O=C1C(O)=C([C@H]2CC[C@H](c3ccc(Cl)cc3)CC2)C(=O)c2ccccc21 [Atovaquone]	96.25%	96.85%	95.64%	91.80%	90.59%	93%	
Acarbose	112.14%	116.25%	108.03%	96.08%	99.05%	93.1%	
Cc1ccc(Cl)c(Nc2ccccc2C(=O)O)c1Cl [Meclofenamate]		121.09%			115.51%		% Enzyme Activity (relative to DMSO controls), Data 1 (CK1d; 1 uM, replicate Data 1): 125.84%; % Enzyme Activity (relative to DMSO controls), Data 1 (VEGFR2; 1 uM): 108.3%; % Enzyme Activity (relative to DMSO controls), Data 1 (VEGFR2; 10 uM): 109.87%
CC(C)(C)NC(=O)[C@@H]1C[C@@H]2CCCC[C@@H]2CN1C[C@@H](O)[C@H](Cc1ccccc1)NC(=O)[C@H](CC(N)=O)NC(=O)c1ccc2ccccc2n1 [Saquinavir, reference compound]							remaining activity at 1 µM (DAPK1; [1]): 87.1%; remaining activity at 1 µM (DAPK1; [2]): 88.8%; remaining activity at 1 µM (DAPK1; [3]): 85.3%; remaining activity at 10 µM (DAPK1; [4]): 27.8%; remaining activity at 10 µM (DAPK1; [5]): 27.8%; remaining activity at 10 µM (DAPK1; [6]): 27.8%; remaining activity at 1 µM (DAPK1; [7]): 87.1%; remaining activity at 10 µM (DAPK1; [8]): 27.8%; remaining activity at 1 µM (CK1d; [1]): 109%; remaining activity at 1 µM (CK1d; [2]): 107%; remaining activity at 1 µM (CK1d; [3]): 111%; remaining activity at 10 µM (CK1d; [4]): 121%; remaining activity at 10 µM (CK1d; [5]): 123%; remaining activity at 10 µM (CK1d; [6]): 119%
C[C@@H]1O[C@@H]1P(=O)(O)O [Fosfomycin]	101.25%	100.97%	101.52%	92.74%	95%	90.48%	
N=C(N)c1ccc(OCCCCCOc2ccc(C(=N)N)cc2)cc1 [Pentamidine]						88.42%	% Enzyme Activity (relative to DMSO controls), Data 2 (VEGFR2; 10 uM): 93.27%
NC[C@H](O)c1ccc(O)c(O)c1 [Norepinephrine]	102.77%	101.72%	103.82%	92.90%	93.2%	92.59%	
CN(C)CCOc1ccc(/C(=C(/CCCl)c2ccccc2)c2ccccc2)cc1 [Toremifene, reference compound]							remaining activity at 1 µM (DAPK1; [1]): 90.4%; remaining activity at 1 µM (DAPK1; [2]): 70.4%; remaining activity at 1 µM (DAPK1; [3]): 110%; remaining activity at 10 µM (DAPK1; [4]): 14.8%; remaining activity at 10 µM (DAPK1; [5]): 14.9%; remaining activity at 10 µM (DAPK1; [6]): 14.6%; remaining activity at 1 µM (DAPK1; [7]): 90.4%; remaining activity at 10 µM (DAPK1; [8]): 14.8%
Cc1ccnc2c1NC(=O)c1cccnc1N2C1CC1 [Nevirapine]	112.57%	101.89%	123.25%	95.31%	95.47%	95.14%	
OC(Cn1cncn1)(Cn1cncn1)c1ccc(F)cc1F [Fluconazole]	100.65%	103.85%	97.44%	95.87%	97.86%	93.87%	
Cc1ccc(Nc2c(F)cccc2Cl)c(CC(=O)O)c1 [Lumiracoxib]	98.27%			101.02%			% Enzyme Activity (relative to DMSO controls), Average (CK1d; 10 uM, Average): 99.41%
CN[C@H]1CC[C@@H](c2ccc(Cl)c(Cl)c2)c2ccccc21 [Sertraline]							% Enzyme Activity (relative to DMSO controls), Average (CK1d; 1 uM, Average): 106.53%; % Enzyme Activity (relative to DMSO controls), Data 1 (CK1d; 1 uM, replicate Data 1): 105.95%; % Enzyme Activity (relative to DMSO controls), Data 2 (CK1d; 1 uM, replicate Data 2): 107.11%; % Enzyme Activity (relative to DMSO controls), Average (CK1d; 10 uM, Average): 163.39%; % Enzyme Activity (relative to DMSO controls), Data 1 (CK1d; 10 uM, replicate Data 1): 106.22%; % Enzyme Activity (relative to DMSO controls), Data 2 (CK1d; 10 uM, replicate Data 2): 220.55%; % Enzyme Activity (relative to DMSO controls), Average (VEGFR2; 1 uM): 106.32%; % Enzyme Activity (relative to DMSO controls), Data 1 (VEGFR2; 1 uM): 107.12%; % Enzyme Activity (relative to DMSO controls), Data 2 (VEGFR2; 1 uM): 105.51%; % Enzyme Activity (relative to DMSO controls), Average (VEGFR2; 10 uM): 105.91%; % Enzyme Activity (relative to DMSO controls), Data 1 (VEGFR2; 10 uM): 107.3%; % Enzyme Activity (relative to DMSO controls), Data 2 (VEGFR2; 10 uM): 104.52%
COC(=O)N[C@H](C(=O)N[C@@H](Cc1ccccc1)[C@@H](O)CN(Cc1ccc(-c2ccccn2)cc1)NC(=O)[C@@H](NC(=O)OC)C(C)(C)C)C(C)(C)C [Atazanavir]	98.48%	95.12%	101.84%	74.66%	73.05%	76.27%	

Further lines, with some results ahead:

% Enzyme Activity (relative to DMSO controls), Average (DAPK1; 1 uM, Average)	% Enzyme Activity (relative to DMSO controls), Data 1 (DAPK1; 1 uM, replicate Data 1)	% Enzyme Activity (relative to DMSO controls), Data 2 (DAPK1; 1 uM, replicate Data 2)	% Enzyme Activity (relative to DMSO controls), Average (DAPK1; 10 uM, Average)	% Enzyme Activity (relative to DMSO controls), Data 1 (DAPK1; 10 uM, replicate Data 1)	% Enzyme Activity (relative to DMSO controls), Data 2 (DAPK1; 10 uM, replicate Data 2)	Molecule	also measured
102.25%	101.97%	102.52%	96.54%	95.41%	97.67%	C=C[C@H]1CN2CC[C@H]1C[C@@H]2[C@@H](O)c1ccnc2ccc(OC)cc12 [Quinidine]	
109.44%	109.64%	109.23%	98.91%	100.03%	97.79%	Cn1c(=O)c2[nH]cnc2n(C)c1=O [Theophylline]	
100.48%	103.12%	97.84%	91.18%	92.93%	89.43%	CN1[C@@H]2CC[C@H]1C[C@@H](OC(=O)c1c[nH]c3ccccc13)C2 [Tropisetron]	% Enzyme Activity (relative to DMSO controls), Average (VEGFR2; 1 uM): 100.61%; % Enzyme Activity (relative to DMSO controls), Data 1 (VEGFR2; 1 uM): 99.56%; % Enzyme Activity (relative to DMSO controls), Data 2 (VEGFR2; 1 uM): 101.65%; % Enzyme Activity (relative to DMSO controls), Average (VEGFR2; 10 uM): 97.73%; % Enzyme Activity (relative to DMSO controls), Data 1 (VEGFR2; 10 uM): 102.27%; % Enzyme Activity (relative to DMSO controls), Data 2 (VEGFR2; 10 uM): 93.19%
